# System: patients with inadequately managed, severe chronic low back pain with or without a neuropathic pain component
# Test: Hospital Anxiety and Depression Scale (HADS) depression score; open-label phase IIIb trial, tapentadol prolonged release 50-250 mg bid for up to 12 weeks
# Assay type: in vivo, human patients
# Details: for HADS depression score, course: Baseline to Week 12
# Description: As used herein, the “depression score” is a value determining the degree of the depression. The scale of depression scores covers the range from 0 to 21, wherein the degree of the depression is high in case of high values and low in case of low values. In a group of tested subjects, typically the mean or mediate values of depression scores are determined. The mean value is the sum of all depression scores divided by the number of subjects. The mediate value is the middle depression score in the set of determined scores. Preferably, the “depression score” is defined as in the experimental section.
# A subgroup suffering from neuropathic pain due to lumbar radiculopathy was also investigated.
# This was a multicenter, multinational, open-label, effectiveness phase IIIb trial to evaluate effectiveness and safety of tapentadol prolonged release treatment in patients with inadequately managed, severe chronic low back pain with or without a neuropathic pain component. Patients taking WHO Step II analgesics discontinued those analgesics before starting study medication; patients taking Step I analgesics and/or centrally acting co-analgesics continued on the same dose. […] All patients received tapentadol prolonged release (50-250 mg bid) for up to 12 weeks (5-week titration period and a 7-week maintenance period). Tapentadol immediate release (IR) 50 mg (twice a day, hours apart) was permitted (combined total daily dose of tapentadol prolonged release and tapentadol IR, 500 mg/day). The primary efficacy endpoint was the change from Baseline to Week 6 (when tapentadol prolonged release doses were stable) in average pain intensity on the 11-point NRS-3 using the last observation carried forward (LOCF) for imputing missing scores. The painDETECT questionnaire was used to evaluate the likelihood of a neuropathic pain component of low back pain; patients were classified as painDETECT “negative,” “unclear,” or “positive.” The population of patients classified as painDETECT negative was limited to approximately 30% of the total population.
# In the painDETECT positive trial population the “diagnosis of lumbar radiculopathy” was evaluated which was defined per study protocol according following criteria: • typical dermatomal pain (radiating beyond the knee towards the foot, pain evoked by stretching within distribution of the ischiadic/femoral nerve) • signs of root dysfunction: • such as sensory impairment, motor symptoms from compression of lumbar nerve root (L4, L5, S1). • and/or absent or diminished quadriceps femoris or triceps surae reflexes. • and/or quantitative sensory testing (QST) deficit and pain distribution present in the same dermatomal area.
# All subjects completed Short Form-36 (SF-36) and EuroQol-5 Dimension (EQ-5D) questionnaires and the Hospital Anxiety and Depression Scale (HADS). The Patient Global Impression of Change (PGIC) and Clinical global impression of change (CGIC) were also used as secondary endpoints. For both tests, patients completed the statement, “since I began trial treatment, I would rate my overall condition as,” using 7 possible responses (“very much worse” to “very much improved”). Adverse events were recorded throughout the trial.
# In the following • (i) N is the number of subjects of the specified diagnosis group, • (ii) n is the number of subjects with data available, • (iii) “Mean” is the mean score of the subjects, i.e. the sum of all scores is divided by the number of subjects, • (iv) SD is the standard deviation, • (v) “Median” is the median score of the subjects, i.e. the middle score in the set of scores, • (vi) “Range” is the range of scores of the subjects, i.e. the range defined by the lowest and the highest score of the set of scores. First, the depression scores are presented. The total number of subjects in the clinical study: N=175
# [1] = Visit 1, defined neuropathic pain N=85
# [2] = Visit 1, positive diagnosis of lumbar radiculopathy-neuropathic pain subset N=44
# [3] = Visit 1, presumed neuropathic pain component N=41
# [4] = Visit 1, presumed or defined neuropathic pain component N=126
# [5] = Visit 1, subjects with nociceptive pain N=49
# [6] = Visit 5, defined neuropathic pain N=85
# [7] = Visit 5, positive diagnosis of lumbar radiculopathy-neuropathic pain subset N=44
# [8] = Visit 5, presumed neuropathic pain component N=41
# [9] = Visit 5, presumed or defined neuropathic pain component N=126
# [10] = Visit 5, subjects with nociceptive pain N=49
# [11] = Visit 6, defined neuropathic pain N=85
# [12] = Visit 6, positive diagnosis of lumbar radiculopathy-neuropathic pain subset N=44
# [13] = Visit 6, presumed neuropathic pain component N=41
# [14] = Visit 6, presumed or defined neuropathic
# [15] = Visit 6, presumed or defined neuropathic pain component N=126
# [16] = Visit 6, subjects with nociceptive pain N=49
# [17] = Visit 7, defined neuropathic pain N=85
# [18] = Visit 7, positive diagnosis of lumbar radiculopathy-neuropathic pain subset N=44
# [19] = Visit 7, presumed neuropathic pain component N=41
# [20] = Visit 7, presumed or defined neuropathic pain component N=126
# [21] = Visit 7, subjects with nociceptive pain N=49
# [22] = Visit 8, defined neuropathic pain N=85
smiles,measurement,setting,value
"CC[C@@H](c1cccc(O)c1)[C@@H](C)CN(C)C [tapentadol, (−)-(1R,2R)-3-(3-dimethylamino-1-ethyl-2-methyl-propyl)-phenol]","HADS depression score, course",painDETECT negative,not significantly
same,"HADS depression score, course","painDETECT unclear/positive, P<0.0001 at Visit 12",improved steadily
same,"HADS depression score, course","positive diagnosis of lumbar radiculopathy-neuropathic pain subset, 0.0023 at Visit 12",improved steadily
same,Depression score Mean (SD),[1],8.3 (4.51)
same,Depression score Median,[1],8.0
same,Depression score Mean (SD),[2],7.5 (3.69)
same,Depression score Median,[2],7.5
same,Depression score Mean (SD),[3],8.8 (4.59)
same,Depression score Median,[3],8.5
same,Depression score Mean (SD),[4],8.5 (4.52)
same,Depression score Median,[4],8.0
same,Depression score Mean (SD),[5],6.1 (3.90)
same,Depression score Median,[5],5.0
same,Depression score Mean (SD),"Visit 1, total subjects N=175",7.8 (4.47)
same,Depression score Median,"Visit 1, total subjects N=175",7.0
same,Depression score Mean (SD),[6],7.3 (4.29)
same,Depression score Median,[6],7.0
same,Depression score Mean (SD),[7],6.7 (3.77)
same,Depression score Median,[7],6.0
same,Depression score Mean (SD),[8],7.5 (4.59)
same,Depression score Median,[8],7.0
same,Depression score Mean (SD),[9],7.4 (4.37)
same,Depression score Median,[9],7.0
same,Depression score Mean (SD),[10],5.6 (3.68)
same,Depression score Median,[10],5.0
same,Depression score Mean (SD),"Visit 5, total subjects N=175",6.9 (4.26)
same,Depression score Median,"Visit 5, total subjects N=175",6.0
same,Depression score change from baseline Mean (SD),Visit 6,−0.4 (3.55)
same,Depression score change from baseline Median,Visit 6,−0.0
same,Depression score change from baseline Mean (SD),"Visit 6, defined neuropathic",−1.7 (3.43)
same,Depression score change from baseline Median,"Visit 6, defined neuropathic",−2.0
same,Depression score Mean (SD),[11],6.8 (4.41)
same,Depression score Median,[11],6.0
same,Depression score change from baseline Mean (SD),"Visit 6, lumbar radiculopathy",−1.7 (3.23)
same,Depression score change from baseline Median,"Visit 6, lumbar radiculopathy",−1.0
same,Depression score change from baseline Mean (SD),"Visit 6, nociceptive",−1.0 (3.15)
same,Depression score change from baseline Median,"Visit 6, nociceptive",−1.0
same,Depression score Mean (SD),[12],6.3 (3.67)
same,Depression score Median,[12],6.0
same,Depression score Mean (SD),[13],7.5 (4.60)
same,Depression score Median,[13],7.5
same,Depression score change from baseline Mean (SD),[14],−1.3 (3.50)
same,Depression score change from baseline Median,[14],−1.0
same,Depression score Mean (SD),[15],7.1 (4.46)
same,Depression score Median,[15],7.0
same,Depression score Mean (SD),[16],5.3 (4.03)
same,Depression score Median,[16],4.0
same,Depression score change from baseline Mean (SD),"Visit 6, total",−1.2 (3.40)
same,Depression score change from baseline Median,"Visit 6, total",−1.0
same,Depression score Mean (SD),"Visit 6, total subjects N=175",6.6 (4.41)
same,Depression score Median,"Visit 6, total subjects N=175",6.0
same,Depression score Mean (SD),[17],6.2 (4.56)
same,Depression score Median,[17],6.0
same,Depression score Mean (SD),[18],5.4 (3.85)
same,Depression score Median,[18],5.0
same,Depression score Mean (SD),[19],7.0 (4.71)
same,Depression score Median,[19],6.5
same,Depression score Mean (SD),[20],6.5 (4.61)
same,Depression score Median,[20],6.0
same,Depression score Mean (SD),[21],5.0 (3.63)
same,Depression score Median,[21],4.0
same,Depression score Mean (SD),"Visit 7, total subjects N=175",6.1 (4.40)
same,Depression score Median,"Visit 7, total subjects N=175",6.0
same,Depression score change from baseline Mean (SD),Visit 8,−1.0 (3.13)
same,Depression score change from baseline Median,Visit 8,−1.0
same,Depression score change from baseline Mean (SD),"Visit 8, defined neuropathic",−2.3 (3.33)
same,Depression score change from baseline Median,"Visit 8, defined neuropathic",−1.5
same,Depression score Mean (SD),[22],6.4 (4.28)
same,Depression score Median,[22],6.0
same,Depression score change from baseline Mean (SD),"Visit 8, lumbar radiculopathy",−2.1 (3.54)
same,Depression score change from baseline Median,"Visit 8, lumbar radiculopathy",−1.0
same,Depression score change from baseline Mean (SD),"Visit 8, nociceptive",−0.8 (2.31)
same,Depression score change from baseline Median,"Visit 8, nociceptive",−1.0
same,Depression score Mean (SD),"Visit 8, positive diagnosis of lumbar radiculopathy-neuropathic pain subset N=44",5.8 (3.71)

# — patent US9980927B2, “Use of tapentadol for inhibiting and/or treating depression and anxiety” (Gruenenthal GmbH, priority 2011, dated 2018)
